Source: patent US20220249413A1, “SWELL 1 MODULATORS FOR TREATMENT OF NON-ALCOHOLIC FATTY LIVER DISEASE, IMMUNE DEFICIENCIES, MALE INFERTILITY AND VASCULAR DISEASES” (priority 2019, published 2022)
pIC50: −log10 of the molar value.

Tests used:
[1] = biological target: T1, VRAC/ICl,SWELL (Homo sapiens, UniProt Q8IWT6); details: read-out: IC50 as VRAC/ICl,SWELL inhibitor; cited from earlier work
T1 sequence (Q8IWT6 1-810): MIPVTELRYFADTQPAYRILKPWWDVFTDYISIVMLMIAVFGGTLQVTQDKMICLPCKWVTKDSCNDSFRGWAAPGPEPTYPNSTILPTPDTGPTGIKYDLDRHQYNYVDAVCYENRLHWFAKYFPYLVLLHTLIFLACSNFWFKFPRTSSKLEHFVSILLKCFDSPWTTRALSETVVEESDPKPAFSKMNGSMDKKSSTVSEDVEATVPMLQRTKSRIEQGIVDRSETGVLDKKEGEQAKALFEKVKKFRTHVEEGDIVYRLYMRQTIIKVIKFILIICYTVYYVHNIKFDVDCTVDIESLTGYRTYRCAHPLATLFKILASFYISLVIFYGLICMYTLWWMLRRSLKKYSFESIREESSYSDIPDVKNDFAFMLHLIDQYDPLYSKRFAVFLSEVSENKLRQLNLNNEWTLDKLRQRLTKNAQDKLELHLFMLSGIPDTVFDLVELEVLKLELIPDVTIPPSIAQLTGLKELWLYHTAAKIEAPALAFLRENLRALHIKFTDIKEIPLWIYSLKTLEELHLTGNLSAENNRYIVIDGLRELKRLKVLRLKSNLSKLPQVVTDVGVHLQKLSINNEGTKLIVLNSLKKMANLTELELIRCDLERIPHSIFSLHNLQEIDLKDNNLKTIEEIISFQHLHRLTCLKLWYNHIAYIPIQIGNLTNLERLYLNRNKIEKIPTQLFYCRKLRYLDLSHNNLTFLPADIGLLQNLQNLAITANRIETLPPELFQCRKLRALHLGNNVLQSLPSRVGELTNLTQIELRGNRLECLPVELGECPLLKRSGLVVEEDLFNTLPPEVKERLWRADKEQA

[2] = system: SWELL1 protein; assay: SWELL1 protein expression by Western blot in 3T3-F442A preadipocytes and adipocytes; assay type: cell-based; details: 10 μM applied for 96 hours
Method: (§1) For Smod1 (DCPIB) mediated induction of SWELL1 and insulin signaling studies in 3T3-F442A preadipocytes, the cells were incubated with either vehicle (DMSO) or 10 μM Smod1 for 96 h. The cells were serum starved for 6 h (+DMSO or Smod1) and stimulated with 0, 3 and 10 nM insulin containing media (−DMSO or Smod1), as described above for 15 mins and the lysates were collected. In the case of 3T3-F442A adipocytes, the WT and KO cells were treated with either vehicle (DMSO) or 10 μM Smod1 following 7-11 days of differentiation for 96 h and then stimulated with 0 and 10 nM insulin for 15 min, as described above. Human embryonic kidney (HEK) cells were cultured and maintained in 90% DMEM (25 mM D-Glucose and 4 mM L-Glutamine) containing 10% fetal bovine serum (FBS) and 100 IU penicillin and 100 μg/ml streptomycin media.
(§2) Electrophysiology Patch-clamp recordings of β-cells and mature adipocytes were performed as described previously (Zhang et al., Nat Cell Biol, 19, 504-517, 2017; Kang et al., Nature Communications, 9, 367, 2018). 3T3-F442A WT and KO preadipocytes were prepared as described in the Cell culture section above. […] Recordings were measured using Axopatch 200B amplifier paired to a Digidata 1550 digitizer using pClamp 10.4 software. […] The images were further analyzed for band intensities using ImageJ software. […]

[3] = Glucose-stimulated insulin secretion (plasma insulin and islet perifusion); assay type: in vivo, mouse; details: 21 weeks HFD mice
[4] = biological target: T2, ICl,SWELL (Homo sapiens, UniProt Q8IWT6); assay: ICl,SWELL patch-clamp upon hypotonic stimulation; assay type: cell-based; details: 10 μM Smod1, HEK cells (FIG. 2f)
T2 construct: endogenous in cells; host or cells: HEK cells (printed 'BEK cells')
T2 sequence (Q8IWT6 1-810): T1 sequence (Q8IWT6 1-810)
Method: as §1, §2

[5] = system: insulin-AKT2-AS160 signaling; assay: Insulin-stimulated pAKT2/pAS160 signaling in 3T3-F442A cells (Western blot); assay type: cell-based
Method: as §1
Electrophysiology Patch-clamp recordings of β-cells and mature adipocytes were performed as described previously (Zhang et al., Nat Cell Biol, 19, 504-517, 2017; Kang et al., Nature Communications, 9, 367, 2018). 3T3-F442A WT and KO preadipocytes were prepared as described in the Cell culture section above. For SWELL1 overexpression recordings, preadipocytes were first transduced with Ad5-CAG-LoxP-stop-LoxP-3× Flag-SWELL1 (MOI 12) in 2% FBS culture medium for two days and then overexpression induced by adding Ad5-CMV-Cre-wt-IRES-eGFP (MOI 10-12) in 2% FBS culture medium for two more days and changed to 10% FBS containing culture media and were selected based on GFP expression (˜2-3 days). For 3-cell recordings, islets were transduced with Ad-RIP2-GFP and then dispersed after 48-72 hours for patch-clamp experiments. GFP+ cells marked […] selected for patch-clamp recordings. Recordings were measured using Axopatch 200B amplifier paired to a Digidata 1550 digitizer using pClamp 10.4 software. The extracellular buffer composition for hypotonic stimulation contains 90 mM NaCl, 2 mM CsCl, 1 mM MgCl2, 1 mM CaCl2), 10 mM HEPES, 10 mM Mannitol, pH 7.4 with NaOH (210 mOsm/kg). […] The images were further analyzed for band intensities using ImageJ software. […]

CCCCC1(C2CCCC2)Cc2cc(OCCCC(=O)O)c(Cl)c(Cl)c2C1=O (centres unmarked) [Smod1, 4-[(2-Butyl-6,7-dichloro-2-cyclopentyl-2,3-dihydro-1-oxo-1H-inden-5-yl)oxy]butanoic acid]
pIC50 [1]: 5.40 to 5.70 | increase of SWELL1 protein expression ([2]; 3T3-F442A adipocytes): 1.5 fold | increase of SWELL1 protein expression ([2]; 3T3-F442 preadipocytes): β | glucose-stimulated insulin secretion (GSIS), serum insulin and perifusion of isolated islets [3]: significantly improved | ICl,SWELL inward and outward current after hypotonic stimulation [4]: inhibition | effects on insulin-AKT2-AS160 signaling in SWELL1 KO ([5]; SWELL1 KO 3T3-F442A adipocytes): absent | insulin-stimulated pAS160 ([5]; WT 3T3-F442A adipocytes, 10 μM for 96 h): enhanced | insulin-stimulated pAKT2 ([5]; WT 3T3-F442A preadipocytes/adipocytes, 10 μM for 96 h): enhanced
